Results published in patent US5202315A, “Cephalosporin compounds” (Lucky, Ltd., priority 1989, dated 1993).
Converted amounts (≈) assume the structure as drawn. Like-named read-outs stand apart in the source and are kept apart here.

Columns and labels:
[1] = In-vivo absorbency (plasma concentrations & pharmacokinetic parameters); set-up: species or system SD rat (male); conditions: plasma, SD male rat, iv 20 mg/kg, read-out: Plasma Conc.
[2] = as above; set-up: species or system SD rat (male); conditions: plasma, SD male rat, iv 20 mg/kg; for half-life: rat, iv, 20 mg/kg
Source text: The blood samples from the femoral vein of the rats were taken every hour after administration, and analyzed by bio-assay(agar well method).
Tested animal: SD male Rat (220~340 g)

[3] = test system: Staphylococcus epidermidis ATCC 12228; experiment: Antibacterial activity, MIC; type: cell-based; conditions: ATCC12228, ATCC 12228, agar two-fold dilution, 37° C., 20 hours, read-out: MIC
Experimental: (§1) Also, the in vitro antibacterial activity was determined by the by a two-fold dilution method as described below:
(§2) That is, the two-fold serial dilutions of the compound were made dispersed in Muller-Hinton agar medium. 2 μl of standard test strain which had the 10^7 CFU per ml was inoculated on the medium, and was incubated at 37° C. for 20 hours.

[4] = test system: Shigella flexneri ATCC 11836; experiment: Antibacterial activity, MIC; type: cell-based; conditions: ATCC11836, agar two-fold dilution, 37° C., 20 hours
Experimental: as §1, §2

[5] = test system: Acinetobacter calcoaceticus ATCC 15473; experiment: Antibacterial activity, MIC; type: cell-based; conditions: ATCC15473, ATCC 15473, agar two-fold dilution, 37° C., 20 hours, read-out: MIC
Experimental: as §1, §2

[6] = test system: Staphylococcus aureus ATCC 6538p; experiment: Antibacterial activity, MIC; type: cell-based; conditions: ATCC6538P, ATCC 6538p, agar two-fold dilution, 37° C., 20 hours, read-out: MIC
Experimental: as §1, §2

[7] = test system: Micrococcus luteus ATCC 9341; experiment: Antibacterial activity, MIC; type: cell-based; conditions: ATCC9341, ATCC 9341, agar two-fold dilution, 37° C., 20 hours, read-out: MIC
Experimental: as §1, §2

[8] = test system: Proteus vulgaris ATCC 6059; experiment: Antibacterial activity, MIC; type: cell-based; conditions: ATCC6059, ATCC 6059, agar two-fold dilution, 37° C., 20 hours, read-out: MIC
Experimental: as §1, §2

[9] = test system: Pseudomonas aeruginosa ATCC 25619; experiment: Antibacterial activity, MIC; type: cell-based; conditions: ATCC25619, ATCC 25619, agar two-fold dilution, 37° C., 20 hours, read-out: MIC
Experimental: as §1, §2

[10] = test system: Pseudomonas aeruginosa ATCC 10145; experiment: Antibacterial activity, MIC; type: cell-based; conditions: ATCC10145, ATCC 10145, agar two-fold dilution, 37° C., 20 hours, read-out: MIC
Experimental: as §1, §2

[11] = test system: Staphylococcus aureus ATCC 10537; experiment: Antibacterial activity, MIC; type: cell-based; conditions: ATCC10537, ATCC 10537, agar two-fold dilution, 37° C., 20 hours, read-out: MIC
Experimental: as §1, §2

[12] = test system: Klebsiella pneumoniae ATCC 10031; experiment: Antibacterial activity, MIC; type: cell-based; conditions: ATCC10031, ATCC 10031, agar two-fold dilution, 37° C., 20 hours, read-out: MIC
Experimental: as §1, §2

[13] = test system: Escherichia coli ATCC 25922; experiment: Antibacterial activity, MIC; type: cell-based; conditions: ATCC25922, agar two-fold dilution, 37° C., 20 hours
Experimental: as §1, §2

[14] = test system: Proteus mirabilis ATCC 25933; experiment: Antibacterial activity, MIC; type: cell-based; conditions: ATCC25933, ATCC 25933, agar two-fold dilution, 37° C., 20 hours, read-out: MIC
Experimental: as §1, §2

[15] = test system: Streptococcus faecalis ATCC 29212; experiment: Antibacterial activity, MIC; type: cell-based; conditions: Enterococcus faecalis, ATCC29212; ATCC 29212; agar two-fold dilution, 37° C., 20 hours; read-out: MIC
Experimental: as §1, §2

[16] = test system: Providencia rettgeri ATCC 9250; experiment: Antibacterial activity, MIC; type: cell-based; conditions: ATCC9250, agar two-fold dilution, 37° C., 20 hours
Experimental: as §1, §2

[17] = test system: Citrobacter freundii ATCC 8090; experiment: Antibacterial activity, MIC; type: cell-based; conditions: ATCC8090, ATCC 8090, agar two-fold dilution, 37° C., 20 hours, read-out: MIC
Experimental: as §1, §2

[18] = test system: Serratia marcescens ATCC 27117; experiment: Antibacterial activity, MIC; type: cell-based; conditions: ATCC27117, ATCC 27117, agar two-fold dilution, 37° C., 20 hours, read-out: MIC
Experimental: as §1, §2

[19] = test system: Enterobacter aerogenes ATCC 29751; experiment: Antibacterial activity, MIC; type: cell-based; conditions: Klebsiella aerogenes, ATCC29751; ATCC 29751; agar two-fold dilution, 37° C., 20 hours; read-out: MIC
Experimental: as §1, §2

[20] = test system: Salmonella typhimurium ATCC 14028; experiment: Antibacterial activity, MIC; type: cell-based; conditions: Salmonella enterica; ATCC 14028; agar two-fold dilution, 37° C., 20 hours; read-out: MIC
Experimental: as §1, §2

[21] = test system: Pseudomonas aeruginosa ATCC 27853; experiment: Antibacterial activity, MIC; type: cell-based; conditions: ATCC27853, ATCC 27853, agar two-fold dilution, 37° C., 20 hours, read-out: MIC
Experimental: as §1, §2

[22] = test system: Enterobacter cloacae ATCC 27508; experiment: Antibacterial activity, MIC; type: cell-based; conditions: ATCC27508, ATCC 27508, agar two-fold dilution, 37° C., 20 hours, read-out: MIC
Experimental: as §1, §2

[23] = test system: Morganella morganii ATCC 8076h; experiment: Antibacterial activity, MIC; type: cell-based; conditions: ATCC8076H, agar two-fold dilution, 37° C., 20 hours
Experimental: as §1, §2

[24] = test system: Shigella sonnei ATCC 11060; experiment: Antibacterial activity, MIC; type: cell-based; conditions: ATCC11060, ATCC 11060, agar two-fold dilution, 37° C., 20 hours, read-out: MIC
Experimental: as §1, §2

[25] = test system: Bacillus cereus ATCC 11778; experiment: Antibacterial activity, MIC; type: cell-based; conditions: ATCC11778, ATCC 11778, agar two-fold dilution, 37° C., 20 hours, read-out: MIC
Experimental: as §1, §2

[26] = test system: Escherichia coli ATCC 10536; experiment: Antibacterial activity, MIC; type: cell-based; conditions: ATCC10536, agar two-fold dilution, 37° C., 20 hours
Experimental: as §1, §2

[27] = test system: Bacillus megaterium ATCC 9885; experiment: Antibacterial activity, MIC; type: cell-based; conditions: Priestia megaterium, ATCC9885; ATCC 9885; agar two-fold dilution, 37° C., 20 hours; read-out: MIC
Experimental: as §1, §2

CC[n+]1c(SCC2=C(C(=O)[O-])N3C(=O)C(NC(=O)/C(=N\OC(C)(C)C(=O)O)c4csc(N)n4)C3SC2)nc(N)c(C)c1N (centres unmarked) [Compound I-32]
concentration at 0.5 min ([1]; 0.5 min): 162000 ng/mL
concentration at 2.5 min ([1]; 2.5 min): 75000 ng/mL
concentration at 5 min ([1]; 5 min): 53000 ng/mL
concentration at 10 min ([1]; 10 min): 35000 ng/mL
concentration at 20 min ([1]; 20 min): 21000 ng/mL
concentration at 40 min ([1]; 40 min): 13000 ng/mL
concentration at 1 h ([2]; 60 min, read-out: Plasma Conc.): 7500 ng/mL
concentration at 2 h ([2]; 120 min, read-out: Plasma Conc.): 1800 ng/mL
AUC ([2]; two compartment model): 30500 ng·h/mL
half-life ([2]; two compartment model, read-out: T1/2 (α)): 3 min
half-life ([2]; two compartment model, read-out: T1/2 (β)): 29 min
MIC [3]: 1 µg/mL (≈ 1.53 µM)
MIC [4]: 0.031 µg/mL (≈ 0.0476 µM)
MIC [5]: 8 µg/mL (≈ 12.3 µM)
MIC [6]: 4 µg/mL (≈ 6.14 µM)
MIC [7]: 0.25 µg/mL (≈ 0.384 µM)
MIC [8]: 0.063 µg/mL (≈ 0.0967 µM)
MIC [9]: 2 µg/mL (≈ 3.07 µM)
MIC [10]: 4 µg/mL (≈ 6.14 µM)
MIC [11]: 2 µg/mL (≈ 3.07 µM)
MIC [12]: 0.063 µg/mL (≈ 0.0967 µM)
MIC [13]: 0.13 µg/mL (≈ 0.199 µM)
MIC [14]: 0.031 µg/mL (≈ 0.0476 µM)
MIC [15]: > 128 µg/mL
MIC [16]: ≤ 0.008 µg/mL
MIC [17]: 0.13 µg/mL (≈ 0.199 µM)
MIC [18]: 0.13 µg/mL (≈ 0.199 µM)
MIC [19]: 2 µg/mL (≈ 3.07 µM)
MIC [20]: 0.25 µg/mL (≈ 0.384 µM)
MIC [21]: 2 µg/mL (≈ 3.07 µM)
MIC [22]: 0.016 µg/mL (≈ 0.0245 µM)
MIC [23]: ≤ 0.008 µg/mL
MIC [24]: 0.13 µg/mL (≈ 0.199 µM)
MIC [25]: 64 µg/mL (≈ 98.2 µM)
MIC [26]: 0.13 µg/mL (≈ 0.199 µM)

CC(C)(O/N=C(\C(=O)NC1C(=O)N2C(C(=O)[O-])=C(CSc3nc(N)cc(N)[n+]3N)CSC12)c1nsc(N)n1)C(=O)O (centres unmarked) [Compound I-13]
MIC [3]: 4 µg/mL (≈ 6.39 µM)
MIC [4]: 0.063 µg/mL (≈ 0.101 µM)
MIC [5]: 4 µg/mL (≈ 6.39 µM)
MIC [6]: 16 µg/mL (≈ 25.6 µM)
MIC [7]: 1 µg/mL (≈ 1.6 µM)
MIC [8]: 0.13 µg/mL (≈ 0.208 µM)
MIC [9]: 2 µg/mL (≈ 3.2 µM)
MIC [10]: 2 µg/mL (≈ 3.2 µM)
MIC [11]: 8 µg/mL (≈ 12.8 µM)
MIC [12]: 0.063 µg/mL (≈ 0.101 µM)
MIC [13]: 0.13 µg/mL (≈ 0.208 µM)
MIC [14]: 0.13 µg/mL (≈ 0.208 µM)
MIC [27]: 1 µg/mL (≈ 1.6 µM)
MIC [15]: > 128 µg/mL
MIC [16]: ≤ 0.008 µg/mL
MIC [17]: 0.13 µg/mL (≈ 0.208 µM)
MIC [18]: 0.25 µg/mL (≈ 0.4 µM)
MIC [19]: 1 µg/mL (≈ 1.6 µM)
MIC [20]: 0.5 µg/mL (≈ 0.799 µM)
MIC [21]: 1 µg/mL (≈ 1.6 µM)
MIC [22]: 0.031 µg/mL (≈ 0.0495 µM)
MIC [23]: 0.016 µg/mL (≈ 0.0256 µM)
MIC [25]: > 128 µg/mL
MIC [26]: 0.13 µg/mL (≈ 0.208 µM)
